In PMC12203862, “BroadAMP-GPT: AI-Driven generation of broad-spectrum antimicrobial peptides for combating multidrug-resistant ESKAPE pathogens” (Gut Microbes, 2025):
≈ marks a conversion by molar mass, not a printed value. Where two headings read alike, the source gives them in different places. Residues, ends and D or L forms follow the SMILES beside them.

Experiments:
S. aureus ATCC 29213 = assay: microbe, parasite or virus in culture; format: cell-based
S. suis P1/7 = assay: microbe, parasite or virus in culture
Procedure: (§1) Bacterial strains and growth conditions: All Gram-negative and Gram-positive bacterial strains (Supplementary Table S8) were cultured in Luria-Bertani (LB) or trypticase soy broth (TSB) agar plates, respectively, and incubated overnight at 37 °C unless specifically indicated. A single colony of the tested bacterial strains was inoculated into medium broth with shaking at 220 rpm for further experiments.
Minimal inhibitory concentrations: Antimicrobial susceptibility testing was performed by broth microdilution method for AMPs against Gram-positive and Gram-negative pathogens above mentioned, following the methods of document CLSI M100-ED34.[43] The MICs were defined as the lowest concentrations that inhibit visible growth of the tested bacteria.

S. enteritis S1 = assay: organism not typed; format: cell-based
Procedure: as §1
(§2) Minimal inhibitory concentrations: Antimicrobial susceptibility testing was performed by broth microdilution method for AMPs against Gram-positive and Gram-negative pathogens above mentioned, following the methods of document CLSI M100-ED34.[43] The MICs were defined as the lowest concentrations that inhibit visible growth of the tested bacteria. E. coli ATCC 25,922 and S. aureus ATCC 29,213 were served as quality controls.

HEp-2 = assay: Cytotoxicity, CCK-8; format: cell-based, human
Procedure: (§3) The cytotoxicity of selected AMPs to human laryngeal carcinoma epithelial cell (HEp-2) and colorectal adenocarcinoma cell (Caco-2) lines was evaluated using the CCK-8 method as previously described.[55] The cells were cultured in high-glucose dulbecco’s modified eagle medium (DMEM) supplemented with 10% fetal bovine serum (FBS) and 1% penicillin-streptomycin. Cells were inoculated in 96-well sterile microtiter plate at 5000 cells/100 μL. After cultured (37℃, 5%CO2) for 24 h, cells were treated with AMPs at concentrations ranging from 8 to 128 μg/mL for another 48 h. Afterward, the culture medium was replaced by fresh DMEM medium containing 10% CCK-8 and incubated for 1 h. The absorbance of the solution was measured at 450 nm by a microplate reader. Cell viability was calculated as: % cell viability = [(Abssample - Absblank)/(Absnegative - Absblank)]×100%. Each experiment was carried out with three replicates.

Caco-2 = assay: Cytotoxicity, CCK-8; format: cell-based, human
Procedure: as §3

mouse red blood cells = assay: Haemolysis assay; format: cell-based; conditions: MIC values against S. aureus ATCC 29213
Procedure: Red blood cells (RBCs) from Kunming mice were used to evaluate the hemolytic toxicity of the selected AMPs. Fresh red blood cells were collected from mice and washed until the supernatant was completely cleared. Added 19-fold volume of PBS to prepare 2% RBC suspension. […] Afterward, the mixture was centrifuged at 1500 rpm for 10 min. Then transferred 30 µL supernatant to 96-well plate containing 70 µL PBS. The absorbance of the sample was measured at 450 nm by a microplate reader. PBS and 2% Triton X-100 was used as negative and positive control, respectively. The experiment was performed in triplicate and the hemolysis activity was calculated by the formula hemolysis = [(Absorbancesample- AbsorbancePBS)/(AbsorbanceTriton x-100-AbsorbancePBS)]×100%.

E. faecalis JH2-2 = assay: microbe, parasite or virus in culture; format: cell-based
Procedure: as §1, §2

S. aureus M92-1 = assay: microbe, parasite or virus in culture; format: cell-based
Procedure: as §1, §2

S. aureus YZSA-15 = assay: microbe, parasite or virus in culture; format: cell-based
Procedure: as §1, §2

P. aeruginosa PA14 = assay: microbe, parasite or virus in culture; format: cell-based
Procedure: as §1, §2

A. baumannii AB11 = assay: microbe, parasite or virus in culture; format: cell-based
Procedure: as §1, §2

S. pyogenes DL02 = assay: microbe, parasite or virus in culture; format: cell-based
Procedure: as §1, §2

K. pneumoniae 9-1 = assay: microbe, parasite or virus in culture; format: cell-based
Procedure: as §1, §2

E. faecalis J2 = assay: microbe, parasite or virus in culture; format: cell-based
Procedure: as §1, §2

E. coli ATCC 25922 = assay: microbe, parasite or virus in culture; format: cell-based
Procedure: as §1, §2

A. baumannii 7979 = assay: microbe, parasite or virus in culture; format: cell-based
Procedure: as §1, §2

E. faecalis ES01 = assay: microbe, parasite or virus in culture; format: cell-based
Procedure: as §1, §2

S. aureus YZSA-24 = assay: microbe, parasite or virus in culture; format: cell-based
Procedure: as §1, §2

S. suis SH0918 = assay: microbe, parasite or virus in culture; format: cell-based
Procedure: as §1, §2

E. faecium QF31 = assay: microbe, parasite or virus in culture; format: cell-based
Procedure: as §1, §2

S. agalactiae DL03 = assay: microbe, parasite or virus in culture; format: cell-based
Procedure: as §1, §2

S. aureus M147-2 = assay: microbe, parasite or virus in culture; format: cell-based
Procedure: as §1, §2

E. faecium HFY01 = assay: microbe, parasite or virus in culture; format: cell-based
Procedure: as §1, §2

E. faecium MC38 = assay: microbe, parasite or virus in culture; format: cell-based
Procedure: as §1, §2

S. aureus YZSA-21 = assay: microbe, parasite or virus in culture; format: cell-based
Procedure: as §1, §2

[1] = system: four Gram-positive and five Gram-negative bacteria, including ESKAPE pathogens; format: cell-based
Procedure: as §1, §2

[2] = system: S. aureus clinical isolates (n = 40); format: cell-based
Procedure: as §1, §2

P. aeruginosa PAO1 = assay: microbe, parasite or virus in culture; format: cell-based; conditions: Pseudomonas aeruginosa; Table 1; P. aeruginosa PAO1; broth microdilution; read-out: MIC
Procedure: as §1, §2

E. faecalis SF23-1 = assay: microbe, parasite or virus in culture; format: cell-based; conditions: Enterococcus faecalis, SF231; Table 1; E. faecalis SF23-1; ermB, tetL, cfr; broth microdilution; read-out: MIC
Procedure: as §1, §2

## CC(C)C[C@H](NC(=O)[C@H](CCCCN)NC(=O)[C@H](Cc1c[nH]c2ccccc12)NC(=O)[C@H](CC(C)C)NC(=O)[C@H](CC(C)C)NC(=O)[C@H](CCCCN)NC(=O)[C@H](Cc1c[nH]c2ccccc12)NC(=O)[C@H](Cc1c[nH]c2ccccc12)NC(=O)[C@H](CCCCN)NC(=O)[C@H](CCCCN)NC(=O)[C@H](C)N)C(=O)N[C@@H](Cc1c[nH]c2ccccc12)C(=O)N[C@@H](CCCCN)C(=O)N[C@@H](CCCCN)C(=O)N[C@@H](C)C(=O)N[C@@H](CCCCN)C(=O)O [AMP_S4] (H-AKKWWKLLWKLWKKAK-OH)
S. aureus ATCC 29213; ATCC 29213
  MIC: 4 µg/mL (≈ 1.87 µM)
S. suis P1/7
  MIC: 4 µg/mL (≈ 1.87 µM)
S. enteritis S1
  MIC: 16 µg/mL (≈ 7.47 µM)
HEp-2; 48 h
  CC50: 35.16 µg/mL (≈ 16.4 µM)
HEp-2; HEp-2, MIC values against S. aureus ATCC 29213
  CC50/MIC: 8.8
Caco-2; 48 h
  CC50: 15.82 µg/mL (≈ 7.39 µM)
Caco-2; Caco-2, MIC values against S. aureus ATCC 29213
  CC50/MIC: 3.96
Mouse red blood cells
  HC50/MIC: 4.56
E. faecalis JH2-2; JH2-2
  MIC: 8 µg/mL (≈ 3.74 µM)
S. aureus M92-1; M92-1
  MIC: 4 µg/mL (≈ 1.87 µM)
S. aureus YZSA-15; YZSA-15
  MIC: 4 µg/mL (≈ 1.87 µM)
P. aeruginosa PA14; PA14
  MIC: 8 µg/mL (≈ 3.74 µM)
A. baumannii AB11; AB11
  MIC: 2 µg/mL (≈ 0.934 µM)
S. pyogenes DL02; DL02
  MIC: 4 µg/mL (≈ 1.87 µM)
K. pneumoniae 9-1; 9-1
  MIC: 16 µg/mL (≈ 7.47 µM)
E. faecalis J2; J2
  MIC: 8 µg/mL (≈ 3.74 µM)
E. coli ATCC 25922; ATCC 25922
  MIC: 8 µg/mL (≈ 3.74 µM)
A. baumannii 7979; 7979
  MIC: 4 µg/mL (≈ 1.87 µM)
E. faecalis ES01; ES01
  MIC: 4 µg/mL (≈ 1.87 µM)
S. aureus YZSA-24; YZSA-24
  MIC: 16 µg/mL (≈ 7.47 µM)
S. suis SH0918
  MIC: 4 µg/mL (≈ 1.87 µM)
E. faecium QF31; QF31
  MIC: 4 µg/mL (≈ 1.87 µM)
S. agalactiae DL03; DL03
  MIC: 4 µg/mL (≈ 1.87 µM)
S. aureus M147-2; M147-2
  MIC: 4 µg/mL (≈ 1.87 µM)
E. faecium HFY01; HFY01
  MIC: 4 µg/mL (≈ 1.87 µM)
E. faecium MC38; MC38
  MIC: 4 µg/mL (≈ 1.87 µM)
S. aureus YZSA-21; YZSA-21
  MIC: 4 µg/mL (≈ 1.87 µM)
[1]
  MIC values, range: 2 to 16 µg/mL
  MICs, range over panel: 2 to 16 µg/mL
[2]
  MICs, range over clinical isolates: 4 to 32 µg/mL

## C[C@H]1c2cccc(O)c2C(=O)C2=C(O)[C@]3(O)C(=O)C(C(N)=O)=C(O)[C@@H](N(C)C)[C@@H]3[C@@H](O)[C@@H]21 [DOX, doxycycline]
S. aureus ATCC 29213; Staphylococcus aureus, ATCC29213, Table 1, S. aureus ATCC 29213, broth microdilution, CLSI M100-ED34, read-out: MIC
  MIC: 0.25 µg/mL (≈ 0.563 µM)
S. suis P1/7; Streptococcus suis, P1/7
  MIC: 0.125 µg/mL (≈ 0.281 µM)
S. enteritis S1; Table 1, S. enteritis S1, broth microdilution, read-out: MIC
  MIC: > 64 µg/mL
E. faecalis JH2-2; Enterococcus faecalis, JH22, Table 1, E. faecalis JH2-2, broth microdilution, read-out: MIC
  MIC: 4 µg/mL (≈ 9 µM)
S. aureus M92-1; Staphylococcus aureus, M921, Table 1, S. aureus M92-1, ermB, tetL, optrA, broth microdilution, read-out: MIC
  MIC: 16 µg/mL (≈ 36 µM)
P. aeruginosa PAO1
  MIC: 8 µg/mL (≈ 18 µM)
S. aureus YZSA-15; Staphylococcus aureus, YZSA15, Table 1, S. aureus YZSA-15, ermC, vanB, broth microdilution, read-out: MIC
  MIC: 0.25 µg/mL (≈ 0.563 µM)
P. aeruginosa PA14; Pseudomonas aeruginosa, Table 1, P. aeruginosa PA14, broth microdilution, read-out: MIC
  MIC: 16 µg/mL (≈ 36 µM)
A. baumannii AB11; Acinetobacter baumannii, Table 1, A. baumannii AB11, broth microdilution, read-out: MIC
  MIC: < 0.06 µg/mL
S. pyogenes DL02; Streptococcus pyogenes, Table 1, S. pyogenes DL02, ermB, broth microdilution, read-out: MIC
  MIC: 2 µg/mL (≈ 4.5 µM)
K. pneumoniae 9-1; Klebsiella pneumoniae, 91, Table 1, K. pneumoniae 9-1, broth microdilution, read-out: MIC
  MIC: > 64 µg/mL
E. faecalis SF23-1
  MIC: 16 µg/mL (≈ 36 µM)
E. faecalis J2; Enterococcus faecalis, Table 1, E. faecalis J2, ermB, optrA, broth microdilution, read-out: MIC
  MIC: 16 µg/mL (≈ 36 µM)
E. coli ATCC 25922; Escherichia coli, ATCC25922, Table 1, E. coli ATCC 25922, broth microdilution, read-out: MIC
  MIC: 1 µg/mL (≈ 2.25 µM)
A. baumannii 7979; Acinetobacter baumannii, Table 1, A. baumannii 7979, broth microdilution, read-out: MIC
  MIC: > 64 µg/mL
E. faecalis ES01; Enterococcus faecalis, Table 1, E. faecalis ES01, ermB, vanB, broth microdilution, read-out: MIC
  MIC: 0.5 µg/mL (≈ 1.13 µM)
S. aureus YZSA-24; Staphylococcus aureus, YZSA24, Table 1, S. aureus YZSA-24, ermC, mecA, broth microdilution, read-out: MIC
  MIC: 0.5 µg/mL (≈ 1.13 µM)
S. suis SH0918; Streptococcus suis, Table 1, S. suis SH0918, ermB, tetO, optrA, broth microdilution, read-out: MIC
  MIC: 16 µg/mL (≈ 36 µM)
E. faecium QF31; Enterococcus faecium, Table 1, E. faecium QF31, ermB, cfr, broth microdilution, read-out: MIC
  MIC: 16 µg/mL (≈ 36 µM)
S. agalactiae DL03; Streptococcus agalactiae, Table 1, S. agalactiae DL03, ermB, broth microdilution, read-out: MIC
  MIC: < 0.06 µg/mL
S. aureus M147-2; Staphylococcus aureus, M1472, Table 1, S. aureus M147-2, ermB, tetL, cfr, broth microdilution, read-out: MIC
  MIC: 16 µg/mL (≈ 36 µM)
E. faecium HFY01; Enterococcus faecium, Table 1, E. faecium HFY01, broth microdilution, read-out: MIC
  MIC: < 0.06 µg/mL
E. faecium MC38; Enterococcus faecium, Table 1, E. faecium MC38, ermB, optrA, broth microdilution, read-out: MIC
  MIC: 16 µg/mL (≈ 36 µM)
S. aureus YZSA-21; Staphylococcus aureus, YZSA21, Table 1, S. aureus YZSA-21, ermC, broth microdilution, read-out: MIC
  MIC: 0.25 µg/mL (≈ 0.563 µM)
